Experimental data taken from patent US20250144067A1, “PERSONALIZED STARVATION THERAPY FOR CANCER” (Faeth Therapeutics, Inc., priority 2021, published 2025).
Structures can show the parent of a compound that is named as a salt. Where two headings read alike, the source gives them in different places.

How the values were obtained:
[1] = system: NCI-H292 lung cancer cells; assay: FDA drug screening, complete media vs cholesterol-free media without statin (TABLE 1); assay type: cell-based, human
[2] = system: NCI-H292 lung cancer cells; assay: FDA drug screening, complete media vs cholesterol-free media with simvastatin (TABLE 2); assay type: cell-based, human
[3] = Complete minus Cholesterol-free, greater than 0 enhanced anti-cancer activity, about 0 neutral, below 0 antagonist
[4] = NCI-H292 cells, FDA drug library screen, cholesterol-free media without statin
[5] = NCI-H292 cells, FDA drug library screen, complete media
[6] = NCI-H292 cells, FDA library drug in cholesterol-free media with simvastatin 0.04 μM
[7] = NCI-H292 cells, FDA library drug in complete media
[8] = complete media vs cholesterol-free media + simvastatin (0.04 μM), >0 enhanced anti-cancer activity, about 0 neutral, <0 antagonist
[9] = Complete minus Cholesterol-free, >0 enhanced anti-cancer activity, about 0 neutral, <0 antagonist
[10] = NCI-H292 cells, cholesterol-free media without statin
[11] = NCI-H292 cells, drug in cholesterol-free media with simvastatin 0.04 μM
[12] = NCI-H292 cells, drug in complete media
[13] = complete vs cholesterol-free media, greater than 0 enhanced anti-cancer activity, about 0 neutral, below 0 antagonists
[14] = complete media minus cholesterol-free media + simvastatin, >0 enhanced anti-cancer activity, about 0 neutral, <0 antagonist
[15] = NCI-H292 cells, cholesterol-free media without statin, FDA drug library screen
[16] = NCI-H292 cells, complete media, FDA drug library screen
[17] = NCI-H292 cells, FDA drug library screen, cholesterol-free media with simvastatin 0.04 μM

With COC(=O)N[C@H](C(=O)N1CC2(CC2)C[C@H]1c1nc(-c2ccc3c(c2)C(F)(F)c2cc(-c4ccc5[nH]c([C@@H]6[C@H]7CC[C@H](C7)N6C(=O)[C@@H](NC(=O)OC)C(C)C)nc5c4)ccc2-3)c[nH]1)C(C)C [Ledipasvir] the Difference [1, 3] was −0.17, the Cholesterol-free [1, 4] was 0.5821 and the Complete [1, 5] was 0.4142. The “Cholesterol-free media + simvastatin (0.04 μM)” value [2, 6] was 1.189, the “Complete Media” value [2, 7] was 0.6926 and the Difference [2, 8] was −0.50.

NC(=O)c1ccn(-c2cnc(NC[C@]3(c4ncccc4F)C[C@H](F)C3)nc2)c1 [Reldesemtiv] showed a Difference [1, 9] of −0.25, a Cholesterol-free [1, 10] of 1.096 and a Complete ([1]; NCI-H292 cells, complete media) of 0.8441. For the same compound, the “Cholesterol-free media + simvastatin (0.04 μM)” value [2, 11] was 1.122, the “Complete Media” value [2, 12] was 0.9357 and the Difference [2, 8] was −0.19.

OCC(CO)N[C@H]1C[C@](O)(CO)[C@@H](O)[C@H](O)[C@H]1O [Voglibose] was tested, and the Cholesterol-free [1] was 1.147, the Complete [1] was 1.027 and the Difference [1] was −0.12. The “Cholesterol-free media + simvastatin (0.04 μM)” value [2] was 0.9097, the “Complete Media” value [2] was 0.6837 and the Difference [2] was −0.23.

For Cc1cn(-c2cc(NC(=O)c3ccc(C)c(Nc4nccc(-c5cccnc5)n4)c3)cc(C(F)(F)F)c2)cn1 [Nilotinib], the Cholesterol-free [1, 10] was 1.511, the Complete ([1]; NCI-H292 cells, complete media) was 1.113 and the Difference [1, 13] was −0.40. For the same compound, the “Cholesterol-free media + simvastatin (0.04 μM)” value ([2]; NCI-H292 cells, cholesterol-free media with simvastatin 0.04 μM, cell growth value in FDA drug screen) was 0.9437, the “Complete Media” value ([2]; NCI-H292 cells, complete media, cell growth value in FDA drug screen) was 0.9791 and the Difference [2, 14] was 0.04.

Work on Cn1ncnc1[C@H]1c2n[nH]c(=O)c3cc(F)cc(c23)N[C@@H]1c1ccc(F)cc1 [Talazoparib tosylate] yielded a Difference [1, 9] of 0.05, a Cholesterol-free [1, 15] of 0.1398 and a Complete [1, 16] of 0.1924. For the same compound, the “Cholesterol-free media + simvastatin (0.04 μM)” value [2, 6] was 0.5996, the “Complete Media” value [2, 7] was 0.312 and the Difference [2, 8] was −0.29.

CC1=C[C@]23C(=O)[C@@H](C=C(CO)[C@@H](O)[C@]2(O)[C@H]1O)[C@H]1[C@@H](C[C@H]3C)C1(C)C [Ingenol] was tested, and the Difference ([1]; Complete minus Cholesterol-free, […]) was −0.29, the Cholesterol-free [1, 10] was 0.932 and the Complete ([1]; NCI-H292 cells, complete media) was 0.6376. For the same compound, the “Cholesterol-free media + simvastatin (0.04 μM)” value [2, 17] was 1.056, the “Complete Media” value [2, 5] was 0.969 and the Difference ([2]; complete media vs cholesterol-free media + simvastatin (0.04 μM), […]) was −0.09.

With O=C(O)CCC(=O)Nc1ccc(S(=O)(=O)Nc2nccs2)cc1 [Succinylsulfathiazole] the Difference [1, 9] was 0.03, the Cholesterol-free [1, 15] was 0.852 and the Complete [1, 16] was 0.8836. The “Cholesterol-free media + simvastatin (0.04 μM)” value ([2]; NCI-H292 cells, cholesterol-free media with simvastatin 0.04 μM, FDA drug library screen (TABLE 2)) was 1.231, the “Complete Media” value ([2]; NCI-H292 cells, complete media, FDA drug library screen (TABLE 2)) was 1.191 and the Difference ([2]; complete media minus cholesterol-free media + simvastatin (0.04 μM), >0 enhanced anti-cancer activity, about 0 neutral, <0 antagonist) was −0.04.

With COC(=O)/C=C/C(=O)OC [Dimethyl fumarate] the Difference [1, 3] was −0.13, the Cholesterol-free [1, 4] was 0.8617 and the Complete [1, 5] was 0.7326. For the same compound, the “Cholesterol-free media + simvastatin (0.04 μM)” value [2, 17] was 0.991, the “Complete Media” value [2, 5] was 0.9095 and the Difference [2, 8] was −0.08.

In the case of OC(CCN1CCCCC1)(c1ccccc1)C1CCCCC1 (stereo not drawn) [Trihexyphenidyl (hydrochloride)], the Cholesterol-free [1, 10] is reported as 1.407, the Complete ([1]; NCI-H292 cells, complete media) is reported as 0.9676 and the Difference [1, 13] is reported as −0.44. For the same compound, the “Cholesterol-free media + simvastatin (0.04 μM)” value [2, 11] was 0.9099, the “Complete Media” value [2, 12] was 0.6915 and the Difference [2, 8] was −0.22.

CCOC(=O)c1ncn2c1CN(C)C(=O)c1cc(F)ccc1-2 [Flumazenil] was tested, and the Difference [1, 9] was 0.05, the Cholesterol-free [1, 15] was 1.073 and the Complete [1, 16] was 1.128. The “Cholesterol-free media + simvastatin (0.04 μM)” value [2, 6] was 1.268, the “Complete Media” value [2, 7] was 0.8397 and the Difference [2, 8] was −0.43.

In the case of C#C[C@]1(O)CC[C@H]2[C@@H]3CCC4=CC(=O)CC[C@@H]4[C@H]3CC[C@@]21C [Norethindrone], the Cholesterol-free [1, 15] is reported as 1.186, the Complete [1, 16] is reported as 1.412 and the Difference ([1]; complete vs cholesterol-free media, >0 enhanced anti-cancer activity, about 0 neutral, <0 antagonist) is reported as 0.23. The “Cholesterol-free media + simvastatin (0.04 μM)” value [2, 17] was 0.8746, the “Complete Media” value [2, 5] was 1.458 and the Difference [2, 14] was 0.58.

CCCOC(=O)c1cc(O)c(O)c(O)c1 [Propyl gallate] was tested, and the Cholesterol-free [1, 10] was 1.541, the Complete ([1]; NCI-H292 cells, complete media) was 1.125 and the Difference [1, 13] was −0.42. The “Cholesterol-free media + simvastatin (0.04 μM)” value [2, 11] was 1.306, the “Complete Media” value [2, 12] was 1.135 and the Difference [2, 8] was −0.17.
